# Reference: patent US20060057093A1, “Preparation for topical use with the function of combating hair loss” (priority 2003, published 2006)
# What was measured:
# [1] = test system: transglutaminases in keratinocytes; details: cited from earlier work
# [2] = test system: human fibroblast cultures; test: cell-stimulating action on human fibroblast cultures; format: cell-based; details: active ingredient present in the culture medium
# Excerpt: The cell-stimulating action of the complex of amino acids with silanol has been tested on human fibroblast cultures. The increase in cell growth was 46% when that active ingredient was present in the culture medium.
Compound,formation of the corneified enclosure of the corneocytes ([1]; keratinocytes in the final stage of differentiation),synthesis of transglutaminases in keratinocytes ([1]; keratinocytes),increase in cell growth [2] [%]
CCCC(=O)[O-].[Na+] [sodium butyrate],capable of stimulating,capable of stimulating the synthesis of transglutaminases,–
monomethylsilanol-hydroxyproline aspartate [complex of amino acids with silanol],–,–,46
